From US20190240176A1, “METHODS OF TREATMENT FOR MYELOID LEUKEMIA” (The University of Georgia Research Foundation, Inc., priority 2016, published 2019)

Experiments:
[1] = system: primary Lin- BC-CML cells; test: Colony formation assay, primary Lin- BC-CML cells; format: cell-based; conditions: primary mouse Lin- BC-CML cells plated with Gbp; FIG. 2B
Method: (§1) The human BC-CML cell line K562, the human acute leukemia cell lines MV4-11 and U937 were maintained in Roswell Park Memorial Institute 1640 medium (RPMI-1640) with 10% FBS, 100 IU/ml penicillin and 100 μg/ml streptomycin. The human acute promyelocytic leukemia cell line HL60 was maintained in RPMI supplemented with 20% FBS. All human cell lines were obtained from ATCC, and cell line authentication testing was performed by ATCC-standardized STR analysis to verify their identity in July 2016. For the colony forming assays, the cells were transduced with lentiviral shRNA and plated in triplicate in 1.2% methylcellulose medium (R&D systems) supplemented with 100 IU/ml penicillin and 100 μg/ml streptomycin, 10% FBS. Where indicated, either BCAAs (L-Leucine, L-Valine, L-Isoleucine, 4 mM each, Sigma-Aldrich), L-alanyl-L-glutamine (4 mM, GlutaMax™, Life Technologies), rapamycin (50 nM, Tocris) or gabapentin (Gbp; Tokyo Chemical Industry Co.) was added to the medium. Gbp was freshly dissolved in PBS before use. Colonies were scored on days 9 to 14. […] Colonies were scored on days 7 to 10.

normal HSPCs = test: Colony formation assay, normal HSPCs (LSK cells); format: cell-based, mouse; conditions: FIGS. 9E-F
Method: as §1

K562 human BC-CML cells = test: Colony formation assay, K562 cells; format: cell-based; conditions: for leukemic colony formation: K562, Gabapentin in combination with Imatinib, 300 cells per well, scored on day 5, FIG. 14A
Method: BCAT1 inhibition by Gabapentin is shown in FIG. 14A, leukemic colony formation by human blast crisis CML was attenuated in combination with the tyrosine kinase inhibitor Imatinib. […] Three hundred cells were plated per well in triplicate, and colonies were scored on day 5 (error bars indicates s.e.m. *p<0.05, **p<0.01). Inhibition of leukemic colony formation by gabapentin (Gbp) and its structural analogs was also investigated (FIG. 14B). The colony-forming ability of K562 human CML cells treated with the indicated chemicals was investigated. One hundred fifty cells were plated per well in triplicate, and colonies were scored on day 14 (error bars indicates s.e.m. ***p<0.001 compared with the vehicle control).
as §1

[2] = system: primary human BC-CML cells; test: Colony formation assay, patient-derived primary BC-CML cells; format: cell-based; conditions: patient-derived primary leukemia cells; FIGS. 3D-E, 11E-F
Method: (§2) Patient blood samples were obtained at the Institute of Medical Science, the University of Tokyo (IMSUT) Hospital with written informed consent according to the procedures approved by the Institutional Review Board. Mononuclear cells from the subjects were viably frozen and stored in liquid nitrogen. For in vitro colony formation with BCAT1 knockdown, primary hCD34^+ cells sorted from patient bone marrow samples were cultured in IMDM supplemented with 10% FBS, 100 IU/ml penicillin and 100 μg/ml streptomycin, 55 μM 2-mercaptoethanol, SCF, IL-3, IL-6, FLT3L and TPO. After 24 h of culture, the cells were transduced with lentiviral shRNA (cloned in FG12-UbiC-GFP), and the GFP-positive infected cells were sorted at 48 h, and 5,000-50,000 cells were plated in complete methylcellulose medium (Methocult H4435, StemCell Technologies). For the colony forming assays with Gbp, sorted hCD34^+ cells from the primary patient specimens were cultured in complete methylcellulose medium with the indicated concentrations of Gbp. Colonies were scored on days 9 to 14.

[3] = system: human AML cell lines (MV4-11, U937, HL60); test: Colony formation assay, human AML cell lines; format: cell-based; conditions: FIG. 11G-I
Method: as §1

primary human AML cells = test: Colony formation assay, primary de novo AML cells; format: cell-based; conditions: FIG. 3G
Method: as §2

[4] = system: intracellular BCAAs in K562 cells; test: Intracellular amino acid quantification in K562 cells; format: cell-based, human; conditions: compared with the controls, FIGS. 12A-B
Method: Leukemia cells or peripheral blood samples drawn from mice bearing myeloid leukemia were used for amino acid and keto acid analysis by high-performance liquid chromatography (HPLC)-fluorescence detection, as described^32-34. In brief, two hundred thousand live leukemia cells per sample were sorted and washed twice with ice-cold PBS to remove media components prior to amino acid extraction. The blood plasma was prepared by centrifugation of the peripheral blood samples at 2,000×g at 4° C. for 10 min. […] For amino acid quantification, the dried samples were treated with the amine-reactive 4-fluoro-7-nitro-2,1,3-benzoxadizole (NBD-F) to derivatize the amino acids. […] The gradient conditions were as follows: t=0 min, 10% B; t=20 min, 50% B; and t=30 min, 100% B. For NBD-Asn, Ser, Thr, Gln and Phe analysis, 25 mM citrate buffer containing 25 mM sodium perchlorate (pH 4.4) was used as the mobile phase A. NBD-amino acids were detected with excitation and emission wavelengths of 470 and 530 nm, respectively. For keto acid quantification, dried samples were treated with o-phenylenediamine (OPD) to derivatize alpha-keto acids, followed by liquid-liquid extraction with ethyl acetate. […] The fluorescence detection was carried out at the emission wavelength of 410 nm with excitation of 350 nm.

[5] = system: S6 kinase (pS6K), a downstream target of mTORC1 kinase; test: Western blotting for phospho-S6 kinase in K562 cells; format: cell-based, human; conditions: shBCAT1-d or 20 mM Gbp for 24 h, FIG. 3J
BCAT1 = target: T1, BCAT1 (Homo sapiens, UniProt P54687); conditions: literature reference 7; cited from earlier work
T1 sequence (P54687 1-386): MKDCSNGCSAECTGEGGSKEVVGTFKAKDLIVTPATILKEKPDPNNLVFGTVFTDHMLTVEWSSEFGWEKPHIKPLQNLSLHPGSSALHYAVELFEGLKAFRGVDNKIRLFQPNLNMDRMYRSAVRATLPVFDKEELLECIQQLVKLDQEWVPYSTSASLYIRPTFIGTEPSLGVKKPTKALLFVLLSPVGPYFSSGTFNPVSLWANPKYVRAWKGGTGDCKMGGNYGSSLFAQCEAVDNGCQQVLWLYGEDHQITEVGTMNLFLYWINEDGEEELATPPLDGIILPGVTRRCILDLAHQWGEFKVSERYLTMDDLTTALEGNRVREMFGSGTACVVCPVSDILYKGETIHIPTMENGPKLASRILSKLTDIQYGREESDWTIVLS

BCAT2 = target: T2, BCAT2 (Homo sapiens, UniProt O15382); conditions: literature reference 7; cited from earlier work
T2 sequence (O15382 28-392): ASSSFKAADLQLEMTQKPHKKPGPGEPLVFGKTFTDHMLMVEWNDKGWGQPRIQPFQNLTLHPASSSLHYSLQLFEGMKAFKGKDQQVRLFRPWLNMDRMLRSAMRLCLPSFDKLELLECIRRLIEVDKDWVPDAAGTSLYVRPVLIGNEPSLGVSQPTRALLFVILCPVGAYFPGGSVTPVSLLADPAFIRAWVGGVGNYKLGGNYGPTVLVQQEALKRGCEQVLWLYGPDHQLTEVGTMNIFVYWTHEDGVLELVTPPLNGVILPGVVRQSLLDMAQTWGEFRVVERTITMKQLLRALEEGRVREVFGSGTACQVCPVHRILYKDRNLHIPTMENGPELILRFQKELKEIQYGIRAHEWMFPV

[6] = in water and in both basic and acidic aqueous solutions; cited from earlier work

NCC1(CC(=O)O)CCCCC1 [Gbp, 1-(aminomethyl)cyclohexane acetic acid]
clonogenic growth [1]: dose-dependent impairment
colony size [1]: formed smaller colonies
colony-forming ability of normal HSPCs (normal HSPCs): only minimally affected
leukemic colony formation (K562 human BC-CML cells): attenuated
colony-forming ability (K562 human BC-CML cells; K562 human BC-CML, FIG. 11A-D): markedly inhibited
colony-forming ability [2]: markedly inhibited
clonal growth [3]: effectively inhibited
clonal growth (primary human AML cells): effectively inhibited
intracellular concentrations of all three BCAAs [4]: significantly reduced
phosphorylation of S6 kinase (pS6K) [5]: significantly reduced
inhibition of the transaminase activity of BCAT1 (BCAT1): specifically and competitively inhibit
inhibition of the transaminase activity of BCAT2 (BCAT2): but not that of BCAT2
solubility [6]: freely soluble

Cc1ccc(NC(=O)c2ccc(CN3CCN(C)CC3)cc2)cc1Nc1nccc(-c2cccnc2)n1 [Imatinib]
leukemic colony formation (K562 human BC-CML cells): attenuated
